Experimental data reported in US9012655B2, “Antimicrobial/adjuvant compounds and methods” (Denouamed, Inc., priority 2011, dated 2015).
Converted amounts (≈) assume the structure as drawn.

Tests used:
Assay type in all cases: cell-based
[1] = system: Staphylococcus aureus EUP MRSA002; assay: MIC panel of challenge pathogens (CLSI), EUP MRSA002; details: EUPMRSA002, Staphylococcus aureus EUP MRSA002; for MIC: read-out: 100% inhibition; for MIC50: read-out: MIC50 (50%); for MIC80: read-out: MIC80 (80%)
Method: The inocula for each bacterial strain were prepared by picking 5-10 distinct colonies from the culture plates and suspending them in the appropriate broth as per Clinical and Laboratory Standards Institute (CLSI) guidelines M07-A8, M24-A or M11-A7 as appropriate. The inoculum was resuspended by vigorous shaking on a vortex mixer for 15 s. The turbidity was then adjusted to McFarland standard 0.5 ([…]). The inoculum was further diluted in the appropriate media for MIC tests to give a final inoculum in each well of 2-8×10^5 CFU/ml. MICs were tested in the appropriate broth in accordance with the appropriate CLSI guidelines.
A stock solution of each compound was prepared at a concentration of 1.28 g/L in DMSO. The stock was further diluted in the appropriate media to give a top starting concentration of 128 mg/L in the assay. 100 μL of the appropriate media, as per CLSI guidelines, was dispensed into each well in columns 2-12. 200 μL of the each compound solution (at 256 mg/L) was dispensed into each well in column 1. 100 μL aliquots were pipetted from column 1 wells and dispensed into column 2 with a multichannel pipette (±2% coefficient of variation) thus diluting two-fold. 100 μL samples were then pipetted from column 2 wells and dispensed into column 3. The process was repeated through to column 10. The final 100 μL of diluted drug from column 10 was then discarded. Row 11 acted as a positive control (no compound, but organisms added), Row 12 acted as a negative control (no compound, and no organisms added).
100 μL of the appropriate inoculum suspension in the appropriate media, as per CLSI guidelines, was added to the appropriate wells. […] All plates were incubated in the dark under aerobic or anaerobic conditions at 30-37° C. for 24-48 hours, according to the appropriate CLSI guideline. Plates were read visually 24-48 hours post inoculation. Endpoints of 100% inhibition were determined (CLSI interpretation endpoints following visual examination).
MIC50, MIC80, and 100% inhibition results are reported below in μg/mL in the following Tables, indicating each compound tested against a given species and strain: […]

[2] = system: Staphylococcus aureus AUR60 7005; assay: MIC panel of challenge pathogens (CLSI); details: AUR607005, Staphylococcus aureus AUR60 7005; for MIC: read-out: 100% inhibition; for MIC50: read-out: MIC50 (50%); for MIC80: read-out: MIC80 (80%)
Method in brief: (§1)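 Broth microdilution per CLSI guidelines. Final inoculum 2-8×10^5 CFU/ml, compounds serially two-fold diluted from 128 mg/L top concentration. Incubated in the dark at 30-37° C for 24-48 h, aerobic or anaerobic as appropriate. MIC read visually as 100% inhibition endpoint; MIC50 and MIC80 also reported.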

[3] = system: Staphylococcus aureus NRS2 (ATCC700698); assay: MIC panel of challenge pathogens (CLSI); details: Staphylococcus aureus NRS2 (ATCC700698); for MIC: read-out: 100% inhibition; for MIC50: read-out: MIC50 (50%); for MIC80: read-out: MIC80 (80%)
Method in brief: as §1

[4] = system: Staphylococcus aureus NRS384; assay: MIC panel of challenge pathogens (CLSI); details: Staphylococcus aureus NRS384; for MIC: read-out: 100% inhibition; for MIC50: read-out: MIC50 (50%); for MIC80: read-out: MIC80 (80%)
Method in brief: as §1

[5] = system: Staphylococcus aureus NRS1 (ATCC700699); assay: MIC panel of challenge pathogens (CLSI); details: Staphylococcus aureus NRS1 (ATCC700699); for MIC: read-out: 100% inhibition; for MIC50: read-out: MIC50 (50%); for MIC80: read-out: MIC80 (80%)
Method in brief: as §1

[6] = system: Staphylococcus aureus AUR58 7005; assay: MIC panel of challenge pathogens (CLSI); details: AUR587005, Staphylococcus aureus AUR58 7005; for MIC: read-out: 100% inhibition; for MIC50: read-out: MIC50 (50%); for MIC80: read-out: MIC80 (80%)
Method in brief: as §1

[7] = system: Staphylococcus epidermidis NRS122; assay: MIC panel of challenge pathogens (CLSI); details: Staphylococcus epidermidis NRS122; for MIC: read-out: 100% inhibition; for MIC50: read-out: MIC50 (50%); for MIC80: read-out: MIC80 (80%)
Method in brief: as §1

[8] = system: Staphylococcus epidermidis NRS7; assay: MIC panel of challenge pathogens (CLSI); details: Staphylococcus epidermidis NRS7; for MIC: read-out: 100% inhibition; for MIC50: read-out: MIC50 (50%); for MIC80: read-out: MIC80 (80%)
Method in brief: as §1

[9] = system: Staphylococcus aureus EUP MRSA004; assay: MIC panel of challenge pathogens (CLSI); details: EUPMRSA004, Staphylococcus aureus EUP MRSA004; for MIC: read-out: 100% inhibition; for MIC50: read-out: MIC50 (50%); for MIC80: read-out: MIC80 (80%)
Method in brief: as §1

[10] = system: Staphylococcus aureus AUR59 7005; assay: MIC panel of challenge pathogens (CLSI); details: AUR597005, Staphylococcus aureus AUR59 7005; for MIC: read-out: 100% inhibition; for MIC50: read-out: MIC50 (50%); for MIC80: read-out: MIC80 (80%)
Method in brief: as §1

[11] = system: Staphylococcus aureus NRS383; assay: MIC panel of challenge pathogens (CLSI); details: Staphylococcus aureus NRS383; for MIC: read-out: 100% inhibition; for MIC50: read-out: MIC50 (50%); for MIC80: read-out: MIC80 (80%)
Method in brief: as §1

[12] = system: Staphylococcus aureus EUP SAU040; assay: MIC panel of challenge pathogens (CLSI); details: EUPSAU040, Staphylococcus aureus EUP SAU040; for MIC: read-out: 100% inhibition; for MIC50: read-out: MIC50 (50%); for MIC80: read-out: MIC80 (80%)
Method in brief: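 Broth microdilution per CLSI guidelines; final inoculum 2-8×10^5 CFU/ml in the appropriate broth. Compounds serially diluted two-fold from a top assay concentration of 128 mg/L. Plates incubated in the dark at 30-37° C for 24-48 hours, read visually; MIC taken as 100% inhibition endpoint.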

Ps. aeruginosa = assay: Combination MICs for antibiotic adjuvant potential; details: Pseudomonas aeruginosa, compound alone, read-out: standalone MIC
Method: Susceptibilities to the compounds were determined using the National Committee for Clinical Laboratory Standards (NCCLS) M7-A6 broth microdilution method. Cation-adjusted Mueller-Hinton broth (Ca^2+, 25 μg/mL; Mg^2+, 12.5 μg/mL) microdilution panels were prepared to contain antimicrobial doubling dilution concentrations of an appropriate range. DMSO (dimethylsulfoxide) controls were incorporated into the panel to mimic the quantity of DMSO used in dissolving some of the compounds at the higher concentrations. Each final panel well volume was 100 μL with a bacterial inoculum of 5×10^5 CFU (colony forming units)/mL of the relevant bacterium. Panels were read following 16 to 20 h of incubation at 35 degrees Celsius in ambient air. The MIC (minimum inhibitory concentration) was defined as the lowest concentration of antimicrobial inhibiting visible growth.
Generally following the procedure of Example 9, MICs of ampicillin, erythromycin, and azithromycin were determined against Ps. aeruginosa. Parallel to this effort, solutions were prepared which were identical. To each of these were added 0.5 μL of stock solution of a given compound of the present invention, then diluted to produce a final concentration of 125 μM, 60 μM, and/or 30 μM for determination of adjuvant activity. Compounds were determined to be antibiotic adjuvants if the mixture produced a lower MIC than that of the antibiotic agent alone.

Compound | MIC [1] [µg/mL] | MIC50 [1] [µg/mL] | MIC80 [1] [µg/mL] | MIC [2] [µg/mL] | MIC50 [2] [µg/mL] | MIC80 [2] [µg/mL] | MIC [3] [µg/mL] | MIC50 [3] [µg/mL] | MIC80 [3] [µg/mL] | MIC [4] [µg/mL] | MIC50 [4] [µg/mL] | MIC80 [4] [µg/mL] | MIC [5] [µg/mL] | MIC50 [5] [µg/mL] | MIC80 [5] [µg/mL] | MIC [6] [µg/mL] | MIC50 [6] [µg/mL] | MIC80 [6] [µg/mL] | MIC [7] [µg/mL] | MIC50 [7] [µg/mL] | also measured
Clc1ccc(-c2cc(-c3nnn[nH]3)sc2-c2ccc(Cl)cc2)cc1 [DNM0487, 5-(4,5-Bis(4-chlorophenyl)thiophen-2-yl)-1H-tetrazole] | 1 (≈ 2.68 µM) | 1 (≈ 2.68 µM) | 1 (≈ 2.68 µM) | 1 (≈ 2.68 µM) | 1 (≈ 2.68 µM) | 1 (≈ 2.68 µM) | 2 (≈ 5.36 µM) | 1 (≈ 2.68 µM) | 2 (≈ 5.36 µM) | 1 (≈ 2.68 µM) | 1 (≈ 2.68 µM) | 1 (≈ 2.68 µM) | 0.5 (≈ 1.34 µM) | 0.25 (≈ 0.67 µM) | 0.5 (≈ 1.34 µM) | 1 (≈ 2.68 µM) | 1 (≈ 2.68 µM) | 1 (≈ 2.68 µM) | 4 (≈ 10.7 µM) | 4 (≈ 10.7 µM) | MIC80 [7]: 4 µg/mL (≈ 10.7 µM); MIC [8]: 1 µg/mL (≈ 2.68 µM); MIC50 [8]: 0.5 µg/mL (≈ 1.34 µM); MIC80 [8]: 1 µg/mL (≈ 2.68 µM); MIC [9]: 2 µg/mL (≈ 5.36 µM); MIC50 [9]: 1 µg/mL (≈ 2.68 µM); MIC80 [9]: 2 µg/mL (≈ 5.36 µM); MIC [10]: 1 µg/mL (≈ 2.68 µM); MIC50 [10]: 1 µg/mL (≈ 2.68 µM); MIC80 [10]: 1 µg/mL (≈ 2.68 µM); MIC [11]: 1 µg/mL (≈ 2.68 µM); MIC50 [11]: 1 µg/mL (≈ 2.68 µM); MIC80 [11]: 1 µg/mL (≈ 2.68 µM); MIC [12]: 2 µg/mL (≈ 5.36 µM); MIC50 [12]: 1 µg/mL (≈ 2.68 µM); MIC80 [12]: 1 µg/mL (≈ 2.68 µM); MIC (Ps. aeruginosa): > 2000 µM
CC(C)c1cc(Cl)ccc1-c1cc(C(=O)O)sc1-c1ccc(Cl)cc1C(C)C [DNM0566, 4,5-Bis(4-chloro-2-isopropylphenyl)thiophene-2-carboxylic acid] | ≤ 0.25 | ≤ 0.25 | ≤ 0.25 | 0.5 (≈ 1.15 µM) | 0.5 (≈ 1.15 µM) | 0.5 (≈ 1.15 µM) | 0.5 (≈ 1.15 µM) | 0.25 (≈ 0.577 µM) | 0.5 (≈ 1.15 µM) | 0.5 (≈ 1.15 µM) | 0.5 (≈ 1.15 µM) | 0.5 (≈ 1.15 µM) | ≤ 0.25 | ≤ 0.25 | ≤ 0.25 | 1 (≈ 2.31 µM) | 1 (≈ 2.31 µM) | 1 (≈ 2.31 µM) | 2 (≈ 4.61 µM) | 1 (≈ 2.31 µM) | MIC80 [7]: 2 µg/mL (≈ 4.61 µM); MIC [8]: 1 µg/mL (≈ 2.31 µM); MIC50 [8]: 1 µg/mL (≈ 2.31 µM); MIC80 [8]: 1 µg/mL (≈ 2.31 µM); MIC [9]: ≤ 0.25 µg/mL; MIC50 [9]: ≤ 0.25 µg/mL; MIC80 [9]: ≤ 0.25 µg/mL; MIC [10]: 0.5 µg/mL (≈ 1.15 µM); MIC50 [10]: 0.25 µg/mL (≈ 0.577 µM); MIC80 [10]: 0.25 µg/mL (≈ 0.577 µM); MIC [11]: ≤ 0.25 µg/mL; MIC50 [11]: ≤ 0.25 µg/mL; MIC80 [11]: ≤ 0.25 µg/mL; MIC [12]: 0.5 µg/mL (≈ 1.15 µM); MIC50 [12]: 0.5 µg/mL (≈ 1.15 µM); MIC80 [12]: 0.5 µg/mL (≈ 1.15 µM)
Cc1cc(Cl)ccc1-c1cc(-c2nnn[nH]2)sc1-c1ccc(Cl)cc1C [DNM0488, 5-(4,5-Bis(4-chloro-2-methylphenyl)thiophen-2-yl)-1H-tetrazole] | 0.5 (≈ 1.25 µM) | 0.5 (≈ 1.25 µM) | 0.5 (≈ 1.25 µM) | 0.5 (≈ 1.25 µM) | 0.5 (≈ 1.25 µM) | 0.5 (≈ 1.25 µM) | 0.5 (≈ 1.25 µM) | 0.5 (≈ 1.25 µM) | 0.5 (≈ 1.25 µM) | 0.5 (≈ 1.25 µM) | 0.5 (≈ 1.25 µM) | 0.5 (≈ 1.25 µM) | ≤ 0.25 | ≤ 0.25 | ≤ 0.25 | 1 (≈ 2.49 µM) | 0.5 (≈ 1.25 µM) | 0.5 (≈ 1.25 µM) | 2 (≈ 4.98 µM) | 1 (≈ 2.49 µM) | MIC80 [7]: 2 µg/mL (≈ 4.98 µM); MIC [8]: 0.5 µg/mL (≈ 1.25 µM); MIC50 [8]: 0.25 µg/mL (≈ 0.623 µM); MIC80 [8]: 0.25 µg/mL (≈ 0.623 µM); MIC [9]: 0.5 µg/mL (≈ 1.25 µM); MIC50 [9]: 0.5 µg/mL (≈ 1.25 µM); MIC80 [9]: 0.5 µg/mL (≈ 1.25 µM); MIC [10]: 0.5 µg/mL (≈ 1.25 µM); MIC50 [10]: 0.5 µg/mL (≈ 1.25 µM); MIC80 [10]: 0.5 µg/mL (≈ 1.25 µM); MIC [11]: 0.5 µg/mL (≈ 1.25 µM); MIC50 [11]: 0.5 µg/mL (≈ 1.25 µM); MIC80 [11]: 0.5 µg/mL (≈ 1.25 µM); MIC [12]: 0.5 µg/mL (≈ 1.25 µM); MIC50 [12]: 0.5 µg/mL (≈ 1.25 µM); MIC80 [12]: 0.5 µg/mL (≈ 1.25 µM)
